According to patent US20240409536A1, “COMPOUNDS AND METHODS FOR MODULATING SPLICING” (REMIX THERAPEUTICS INC., priority 2021, published 2024):
Structures can show the parent of a compound that is named as a salt.

Legend:
Format in all cases: cell-based, human
HTT mRNA = assay: Gene panel canonical junction qPCR assay, HTT CJ mRNA decrease; settings: Homo sapiens, canonical junction qPCR, read-out: HTT IC50 (decrease in CJ mRNA levels)
Outline: (§1)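 IC50 values describe loss of canonical-junction transcript, fitted by 4-parameter logistic to percent response derived from fixed ΔCt windows. Read-out: RT-qPCR on lysates of compound-treated K562 or A673 cells, probes overlapping the exon junction, ΔΔCt versus housekeeping gene and DMSO control.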

SMN2 mRNA = assay: Gene panel canonical junction qPCR assay, SMN2 CJ mRNA decrease; settings: Homo sapiens, canonical junction qPCR, read-out: SMN2 IC50 (decrease in CJ mRNA levels)
Outline: as §1

HiBiT-tagged MYB protein = assay: HiBiT protein abundance assay, MYB (K562 HiBiT knock-in cells); settings: 24 hours
Outline: (§2)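 Luminescent readout of HiBiT-tagged endogenous protein after lysis, following 24 h compound exposure of knock-in K562 lines at 37 °C. Ten 3-fold concentrations from 10 μM final, DMSO ≤0.25%. Four-parameter logistic fit of normalized response gives concentration halving abundance (IC50).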

HiBiT-tagged HTT protein = assay: HiBiT protein abundance assay, HTT (K562 HiBiT knock-in cells); settings: 24 hours
Outline: as §2

Compound | IC50 (HTT mRNA) [nM] | IC50 (SMN2 mRNA) [nM] | IC50 (HiBiT-tagged MYB protein) [nM] | IC50 (HiBiT-tagged HTT protein) [nM]
Cc1cn2cc(NC(=O)c3ccc(N4CCNC5(COC5)C4)c4nccnc34)cc(F)c2n1 [Compound 372] | > 10000 | 100 to 1000 | 1000 to 10000 | > 10000
Cc1cn2nc(NC(=O)c3ccc(N4CCNCC4)c4ccnnc34)cc(C)c2n1 [Compound 100] | 100 to 1000 | 100 to 1000 | 100 to 1000 | 100 to 1000
Cc1cn2cc(NC(=O)c3ccc(N4CCN(CCF)C5(CC5)C4)c4nccnc34)cc(F)c2n1 [Compound 370] | > 10000 | 100 to 1000 | 1000 to 10000 | > 10000
Cc1cn2cc(NC(=O)c3ccc(N4CCC(NC(C)(C)C)CC4)c4ccnnc34)cc(F)c2n1 [Compound 138] | 1000 to 10000 | < 100 | 100 to 1000 | 1000 to 10000
Cc1cn2cc(NC(=O)c3ccc(N4CCNC5(CCOCC5)C4)c4nccnc34)cc(F)c2n1 [Compound 374] | 1000 to 10000 | < 100 | 100 to 1000 | 1000 to 10000
Cc1cn2nc(NC(=O)c3ccc(N4CCNCC4)c4ccnnc34)cc2c(C)n1 [Compound 123] | 1000 to 10000 | 1000 to 10000 | 1000 to 10000 | 1000 to 10000
Cc1cn2cc(NC(=O)c3ccc(N4CCNC5(CCOC5)C4)c4nccnc34)cc(F)c2n1 (centres unmarked) [Compound 373] | > 10000 | < 100 | 100 to 1000 | 1000 to 10000
Cc1cn2cc(NC(=O)c3ccc(N4CCNCC4)c4ccnnc34)cc(C)c2n1 [Compound 125] | 1000 to 10000 | < 100 | 100 to 1000 | 1000 to 10000
Cc1cn2cc(NC(=O)c3ccc(N4C[C@H]5C[C@@H]4C5N(C)C)c4ccnnc34)cc(F)c2n1 (some centres unmarked) [Compound 155] | > 10000 | 100 to 1000 | > 10000 | > 10000
COc1nc(NC(=O)c2ccc(N3CCNCC3)c3ccnnc23)cn2cc(C)nc12 [Compound 179, N-{8-methoxy-2-methylimidazo[1,2-a]pyrazin-6-yl}-5-(piperazin-1-yl)cinnoline-8-carboxamide] | 1000 to 10000 | < 100 | < 100 | 1000 to 10000
Cc1cn2cc(NC(=O)c3ccc(N4CCNCC4)c4ccnnc34)nc(C)c2n1 [Compound 164, N-{2,8-dimethylimidazo[1,2-a]pyrazin-6-yl}-5-(piperazin-1-yl)cinnoline-8-carboxamide 2,2,2-trifluoroacetate] | > 10000 | < 100 | 100 to 1000 | 1000 to 10000
Cc1cn2cc(NC(=O)c3ccc(N4CCNCC4)c4cccnc34)cc(F)c2n1 [Compound 165, N-{8-fluoro-2-methylimidazo[1,2-a]pyridin-6-yl}-5-(piperazin-1-yl)quinoline-8-carboxamide] | 1000 to 10000 | < 100 | < 100 | 100 to 1000
O=C(Nc1cn[nH]c1)c1ccc(N2CCNCC2)c2ccnnc12 [Compound 126] | > 10000 | > 10000 | > 10000 | > 10000
Cc1nc(NC(=O)c2ccc(N3CCNCC3)c3ccnnc23)cc2cn(C)nc12 [Compound 178, N-{2,7-dimethylpyrazolo[3,4-c]pyridin-5-yl}-5-(piperazin-1-yl)cinnoline-8-carboxamide] | > 10000 | < 100 | 100 to 1000 | 1000 to 10000
Cc1cn2cc(NC(=O)c3ccc(N4CCNCC4)c4ccnnc34)[nH]c(=O)c2n1 [Compound 177, N-{2-methyl-8-oxo-7H-imidazo[1,2-a]pyrazin-6-yl}-5-(piperazin-1-yl)cinnoline-8-carboxamide trifluoroacetic acid salt] | 100 to 1000 | 100 to 1000 | 100 to 1000 | 100 to 1000
Cc1cn2cc(NC(=O)c3ccc(N4CCNC5(CC5)C4)c4ccnnc34)cc(F)c2n1 [Compound 105] | 1000 to 10000 | < 100 | 100 to 1000 | 1000 to 10000

Further lines, results first:

IC50 (HTT mRNA) [nM] | IC50 (SMN2 mRNA) [nM] | IC50 (HiBiT-tagged MYB protein) [nM] | IC50 (HiBiT-tagged HTT protein) [nM] | Compound
100 to 1000 | < 100 | < 100 | 100 to 1000 | COc1cnc2c(N3C[C@@H](C)N[C@@H](C)C3)ccc(C(=O)Nc3cc(F)c4nc(C)cn4c3)c2n1 [Compound 205, 8-[(3R,5S)-3,5-dimethylpiperazin-1-yl]-N-{8-fluoro-2-methylimidazo[1,2-a]pyridin-6-yl}-3-methoxyquinoxaline-5-carboxamide; trifluoroacetic acid]
> 10000 | < 100 | 100 to 1000 | 1000 to 10000 | CN[C@@H]1CCN(c2ccc(C(=O)Nc3cc(F)c4nc(C)cn4c3)c3nc(OC)cnc23)C1 [Compound 204, (R)—N-{8-fluoro-2-methylimidazo[1,2-a]pyridin-6-yl}-3-methoxy-8-[3-(methylamino)pyrrolidin-1-yl]quinoxaline-5-carboxamide; trifluoroacetic acid]
1000 to 10000 | < 100 | < 100 | 1000 to 10000 | Cc1cnc2c(N3C[C@@H](C)N[C@@H](C)C3)ccc(C(=O)Nc3cc(F)c4nc(C)cn4c3)c2n1 [Compound 216, 8-((3R,5S)-3,5-dimethylpiperazin-1-yl)-N-{8-fluoro-2-methylimidazo[1,2-a]pyridin-6-yl}-3-methylquinoxaline-5-carboxamide]
1000 to 10000 | < 100 | < 100 | 1000 to 10000 | Cc1cn2cc(NC(=O)c3ccc(N4CCNC(C)(C)C4)c4nccnc34)cc(F)c2n1 [Compound 220, 8-(3,3-dimethylpiperazin-1-yl)-N-{8-fluoro-2-methylimidazo[1,2-a]pyridin-6-yl}quinoxaline-5-carboxamide]
1000 to 10000 | < 100 | < 100 | 1000 to 10000 | Cc1cn2cc(NC(=O)c3ccc(N4CCN[C@@H](C)C4)c4nccnc34)cc(F)c2n1 [Compound 187, N-{8-fluoro-2-methylimidazo[1,2-a]pyridin-6-yl}-8-(3-methylpiperazin-1-yl) quinoxaline-5-carboxamide]
> 10000 | < 100 | < 100 | 1000 to 10000 | Cc1cn2cc(NC(=O)c3ccc(N4CCNC5(CC5)C4)c4nccnc34)cc(F)c2n1 [Compound 218, 8-{4,7-diazaspiro[2.5]octan-7-yl}-N-{8-fluoro-2-methylimidazo[1,2-a]pyridin-6-yl}quinoxaline-5-carboxamide]
> 10000 | < 100 | 100 to 1000 | 1000 to 10000 | Cc1cn2cc(NC(=O)c3ccc(N4C[C@@H](C)NC5(CC5)C4)c4nccnc34)cc(F)c2n1 [Compound 376]
100 to 1000 | < 100 | < 100 | 100 to 1000 | COc1cnc2c(C(=O)Nc3cc(F)c4nc(C)cn4c3)ccc(N3C[C@@H](C)N[C@@H](C)C3)c2n1 [Compound 223]
1000 to 10000 | < 100 | < 100 | 100 to 1000 | COc1cc2c(N3CCNCC3)ccc(C(=O)Nc3cc(F)c4nc(C)cn4c3)c2nn1 [Compound 183, N-{8-fluoro-2-methylimidazo[1,2-a]pyridin-6-yl}-3-methoxy-5-(piperazin-1-yl)cinnoline-8-carboxamide]
1000 to 10000 | < 100 | 100 to 1000 | 1000 to 10000 | Cc1cn2cc(NC(=O)c3ccc(N4CCN(C)[C@@H](C)C4)c4ccnnc34)cc(F)c2n1 [Compound 150]
100 to 1000 | < 100 | < 100 | 100 to 1000 | COc1cnc2c(N3CCNCC3)ccc(C(=O)Nc3cc(F)c4nc(C)cn4c3)c2n1 [Compound 207, N-{8-fluoro-2-methylimidazo[1,2-a]pyridin-6-yl}-3-methoxy-8-(piperazin-1-yl)quinoxaline-5-carboxamide; bis(trifluoroacetic acid)]
> 10000 | < 100 | < 100 | > 10000 | COCCOc1ccc2c(N3CCNCC3)ccc(C(=O)Nc3cc(F)c4nc(C)cn4c3)c2n1 [Compound 173, N-{8-fluoro-2-methylimidazo[1,2-a]pyridin-6-yl}-2-(2-methoxyethoxy)-5-(piperazin-1-yl)quinoline-8-carboxamide]
1000 to 10000 | < 100 | < 100 | 1000 to 10000 | Cc1cn2cc(NC(=O)c3ccc(N4C[C@@H](C)N[C@@H](C)C4)c4ccnnc34)cc(F)c2n1 [Compound 161, 5-(3,5-dimethylpiperazin-1-yl)-N-{8-fluoro-2-methylimidazo[1,2-a]pyridin-6-yl}cinnoline-8-carboxamide 2,2,2-trifluoroacetate]
100 to 1000 | < 100 | < 100 | 100 to 1000 | Cc1cn2cc(NC(=O)c3ccc(N4CCNC(C)C4)c4ccnnc34)cc(F)c2n1 (centres unmarked) [Compound 128]
> 10000 | < 100 | < 100 | > 10000 | COc1cnc2c(C(=O)Nc3cc(F)c4nc(C)cn4c3)ccc(N3CCNCC3)c2n1 [Compound 225, N-{8-fluoro-2-methylimidazo[1,2-a]pyridin-6-yl}-2-methoxy-8-(piperazin-1-yl)quinoxaline-5-carboxamide]
1000 to 10000 | < 100 | 100 to 1000 | 1000 to 10000 | Cc1cn2cc(NC(=O)c3ccc(N4C[C@H](C)NC5(CC5)C4)c4nccnc34)cc(F)c2n1 [Compound 377]
